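Exposure lasted 48 hours, with cells grown in 96-well plates and compounds tested at five concentrations. GI50: concentration for 50% inhibition of growth.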 Calls of active or inactive are those of the source. Rule as the data show it: active = GI50 up to about 1.1 µM and inactive = higher.
Assays:
Assay in all cases: growth of human tumour cells (NCI), 48 h
786-0 = tested on: 786-0
A498 = tested on: A498
A549 = tested on: A549
ACHN = tested on: ACHN
CAKI-1 = tested on: CAKI-1
CCRF-CEM = tested on: CCRF-CEM
COLO 205 = tested on: COLO 205
DMS-114 = tested on: DMS-114
DMS-273 = tested on: DMS-273
EKVX = tested on: EKVX
HCT-116 = tested on: HCT-116
HCT-15 = tested on: HCT-15
HL-60 = tested on: HL-60
HOP-62 = tested on: HOP-62
HOP-92 = tested on: HOP-92
HT-29 = tested on: HT-29
IGROV-1 = tested on: IGROV-1
K562 = tested on: K562
KM-20L2 = tested on: KM-20L2
KM12 = tested on: KM12
LOX IMVI = tested on: LOX IMVI
LXFL 529 = tested on: LXFL 529
M14 = tested on: M14
M19-MEL = tested on: M19-MEL
MOLT-4 = tested on: MOLT-4
NCI-H226 = tested on: NCI-H226
NCI-H23 = tested on: NCI-H23
NCI-H460 = tested on: NCI-H460
NCI-H522 = tested on: NCI-H522
OVCAR-3 = tested on: OVCAR-3
OVCAR-4 = tested on: OVCAR-4
OVCAR-5 = tested on: OVCAR-5
OVCAR-8 = tested on: OVCAR-8
RPMI-8226 = tested on: RPMI-8226
SF-268 = tested on: SF-268
SF-295 = tested on: SF-295
SF-539 = tested on: SF-539
SK-MEL-28 = tested on: SK-MEL-28
SK-MEL-2 = tested on: SK-MEL-2
SK-MEL-5 = tested on: SK-MEL-5
SK-OV-3 = tested on: SK-OV-3
SNB-19 = tested on: SNB-19
SNB-78 = tested on: SNB-78
SR = tested on: SR
SW-620 = tested on: SW-620
TK-10 = tested on: TK-10
U-251 = tested on: U-251
UACC-257 = tested on: UACC-257
UACC-62 = tested on: UACC-62
UO-31 = tested on: UO-31
XF498 = tested on: XF498
BT-549 = tested on: BT-549
DU-145 = tested on: DU-145
HCC 2998 = tested on: HCC 2998
Hs-578T = tested on: Hs-578T
MCF7 = tested on: MCF7
MDA-MB-231 = tested on: MDA-MB-231
MDA-MB-435 = tested on: MDA-MB-435
MDA-N = tested on: MDA-N
Malme-3M = tested on: Malme-3M
NCI/ADR-RES = tested on: NCI/ADR-RES
PC-3 = tested on: PC-3
RXF 393 = tested on: RXF 393
SN12C = tested on: SN12C
SNB-75 = tested on: SNB-75
T47D = tested on: T47D

SMILES: CCOC(=O)/C(=C/c1cccc(OC)c1)N(CC)CC
- GI50 (786-0): > 100 µM (inactive)
- GI50 (A498): > 100 µM (inactive)
- GI50 (A549): > 100 µM (inactive)
- GI50 (ACHN): > 100 µM (inactive)
- GI50 (CAKI-1): > 100 µM (inactive)
- GI50 (CCRF-CEM): > 100 µM (inactive)
- GI50 (COLO 205): > 100 µM (inactive)
- GI50 (DMS-114): > 100 µM (inactive)
- GI50 (DMS-273): > 100 µM (inactive)
- GI50 (EKVX): > 100 µM (inactive)
- GI50 (HCT-116): > 100 µM (inactive)
- GI50 (HCT-15): > 100 µM
- GI50 (HL-60): > 100 µM (inactive)
- GI50 (HOP-62): > 100 µM (inactive)
- GI50 (HOP-92): > 100 µM (inactive)
- GI50 (HT-29): > 100 µM (inactive)
- GI50 (IGROV-1): > 100 µM (inactive)
- GI50 (K562): > 100 µM (inactive)
- GI50 (KM-20L2): > 100 µM (inactive)
- GI50 (KM12): > 100 µM (inactive)
- GI50 (LOX IMVI): > 100 µM (inactive)
- GI50 (LXFL 529): > 100 µM (inactive)
- GI50 (M14): > 100 µM (inactive)
- GI50 (M19-MEL): > 100 µM (inactive)
- GI50 (MOLT-4): > 100 µM (inactive)
- GI50 (NCI-H226): > 100 µM (inactive)
- GI50 (NCI-H23): > 100 µM (inactive)
- GI50 (NCI-H460): > 10 µM (inactive)
- GI50 (NCI-H522): > 100 µM (inactive)
- GI50 (OVCAR-3): > 100 µM (inactive)
- GI50 (OVCAR-4): > 100 µM (inactive)
- GI50 (OVCAR-5): > 100 µM (inactive)
- GI50 (OVCAR-8): > 100 µM (inactive)
- GI50 (RPMI-8226): > 100 µM (inactive)
- GI50 (SF-268): > 100 µM (inactive)
- GI50 (SF-295): > 100 µM (inactive)
- GI50 (SF-539): > 100 µM (inactive)
- GI50 (SK-MEL-28): > 100 µM (inactive)
- GI50 (SK-MEL-2): > 100 µM (inactive)
- GI50 (SK-MEL-5): > 100 µM (inactive)
- GI50 (SK-OV-3): > 100 µM (inactive)
- GI50 (SNB-19): > 100 µM (inactive)
- GI50 (SNB-78): > 100 µM (inactive)
- GI50 (SR): > 100 µM (inactive)
- GI50 (SW-620): > 100 µM (inactive)
- GI50 (TK-10): > 100 µM (inactive)
- GI50 (U-251): > 100 µM (inactive)
- GI50 (UACC-257): > 100 µM (inactive)
- GI50 (UACC-62): > 100 µM (inactive)
- GI50 (UO-31): > 100 µM (inactive)
- GI50 (XF498): > 100 µM (inactive)

SMILES: O=C(Cn1cc(Br)c(=O)[nH]c1=O)c1ccc(-c2ccccc2)cc1
- GI50 (786-0): 10.5 µM (inactive)
- GI50 (A498): > 100 µM (inactive)
- GI50 (A549): > 17.4 µM (inactive)
- GI50 (ACHN): 18.6 µM (inactive)
- GI50 (BT-549): 3.18 µM (inactive)
- GI50 (CAKI-1): 6 µM (inactive)
- GI50 (CCRF-CEM): > 12.6 µM (inactive)
- GI50 (COLO 205): > 16.4 µM (inactive)
- GI50 (DU-145): > 16.1 µM (inactive)
- GI50 (EKVX): 60 µM (inactive)
- GI50 (HCC 2998): > 15.8 µM (inactive)
- GI50 (HCT-116): > 16 µM (inactive)
- GI50 (HCT-15): 7.67 µM
- GI50 (HL-60): > 17.4 µM (inactive)
- GI50 (HOP-62): 5.12 µM (inactive)
- GI50 (HOP-92): 6.89 µM (inactive)
- GI50 (HT-29): > 17 µM (inactive)
- GI50 (Hs-578T): 29.6 µM (inactive)
- GI50 (IGROV-1): 15.7 µM (inactive)
- GI50 (K562): > 11.2 µM (inactive)
- GI50 (KM12): > 14.6 µM (inactive)
- GI50 (LOX IMVI): > 15.4 µM (inactive)
- GI50 (M14): > 15.1 µM (inactive)
- GI50 (MCF7): > 17.5 µM (inactive)
- GI50 (MDA-MB-231): 12.2 µM (inactive)
- GI50 (MDA-MB-435): > 16.8 µM (inactive)
- GI50 (MDA-N): > 100 µM (inactive)
- GI50 (MOLT-4): > 13 µM (inactive)
- GI50 (Malme-3M): > 26.5 µM (inactive)
- GI50 (NCI-H226): 17 µM (inactive)
- GI50 (NCI-H23): 16.4 µM (inactive)
- GI50 (NCI-H460): > 15.9 µM (inactive)
- GI50 (NCI-H522): 5.57 µM (inactive)
- GI50 (NCI/ADR-RES): 13 µM (inactive)
- GI50 (OVCAR-3): > 100 µM (inactive)
- GI50 (OVCAR-4): > 15.8 µM (inactive)
- GI50 (OVCAR-5): > 14.4 µM (inactive)
- GI50 (OVCAR-8): 6.76 µM (inactive)
- GI50 (PC-3): > 17.8 µM (inactive)
- GI50 (RPMI-8226): 15.3 µM (inactive)
- GI50 (RXF 393): 63 µM (inactive)
- GI50 (SF-268): 4.71 µM (inactive)
- GI50 (SF-295): 10.9 µM (inactive)
- GI50 (SF-539): 8.41 µM (inactive)
- GI50 (SK-MEL-28): > 14.3 µM (inactive)
- GI50 (SK-MEL-2): > 12.4 µM (inactive)
- GI50 (SK-MEL-5): > 15.6 µM (inactive)
- GI50 (SK-OV-3): > 58.6 µM (inactive)
- GI50 (SN12C): 16.1 µM (inactive)
- GI50 (SNB-19): 2.25 µM (inactive)
- GI50 (SNB-75): 1.85 µM (inactive)
- GI50 (SR): > 17 µM (inactive)
- GI50 (SW-620): > 17.5 µM (inactive)
- GI50 (T47D): > 100 µM (inactive)
- GI50 (TK-10): > 30.8 µM (inactive)
- GI50 (U-251): 5.31 µM (inactive)
- GI50 (UACC-257): 15.9 µM (inactive)
- GI50 (UACC-62): > 100 µM (inactive)
- GI50 (UO-31): > 100 µM (inactive)
